Test results published in article PMC11642940, “A New Demand for Improved Selectivity and Potency of Cyanine Dyes as Antiproliferative Agents Against Colorectal Cancer Cells” (Molecules, 2024).
Read-outs that look alike come from different tables or passages of the source.

Tests used:
[1] = MTT cell viability assay, NHDF; type: cell-based, human; conditions: human, 10 µM, 72 h, mean ± SD, read-out: cell viability percentage in relation to control, NHDF
Procedure: (§4) The cell lines used in this study (Caco-2, MCF-7, PC-3, and NHDF) were obtained from the American Type Culture Collection (ATCC, Manassas, VA, USA) and cultured in 75 cm^2 culture flasks at 37 °C in a humidified atmosphere with 5% CO2 in a LEEC Culture Safe Precision CO2 Incubator. PC-3 cells were grown in Roswell Park Memorial Institute (RPMI) medium supplemented with 10% of inactivated Fetal Bovine Serum (FBS) and 1% of an antibiotic mixture (Sp; 10,000 U/mL of penicillin G and 100 mg/mL of streptomycin). MCF-7 and Caco-2 cell lines were both cultured using Dulbecco’s Modified Eagle Medium (DMEM). However, the medium for MCF-7 cells was complemented with 10% of inactivated FBS and 1% of antibiotic/antimycotic mixture (Ab; 10,000 U/mL of penicillin G, 100 mg/mL of streptomycin and 25 µg/mL of amphotericin B), and the medium for Caco-2 cells was supplemented with 20% of inactivated FBS and 1% of Sp. Finally, RPMI medium supplemented with 10% FBS, 2 mM of L-glutamine, 10 mM of 4-(2-hydroxyethyl)-1-piperazineethanesulfonic acid (HEPES), 1 mM of sodium pyruvate, and 1% of Ab was used to culture NHDF cells. The culture media were renewed every two to three days until near confluence was achieved. Then, cells were detached using a solution of 0.125 g/L of trypsin and 0.02 g/L of ethylenediaminetetracetic acid (EDTA), counted by the trypan blue method, resuspended, and adequately seeded to continue the culture in 75 cm^2 flasks or for the experiments described below. All manipulations were performed in a Labculture Class II A2 Biological Safety Cabinet.

[2] = test system: normal human dermal fibroblasts (NHDF); experiment: MTT cell viability assay, NHDF; type: cell-based; conditions: Homo sapiens, NHDF, read-out: IC50 NHDF
Procedure: as §4

[3] = MTT cell viability assay, Caco-2; conditions: human
Procedure: (§1) To evaluate the anticancer potential of monomethine cyanine dyes 1–12, a cell proliferation study was conducted using the 3-(4,5-dimethylthiazol-2-yl)-2,5-diphenyltetrazolium bromide (MTT) assay. For this preliminary evaluation, a concentration of 10 µM for each dye was tested, with the well-established chemotherapy agent 5-fluorouracil (5-FU) serving as a positive control. The assay included normal human dermal fibroblasts (NHDF) as non-tumor cells, alongside tumor cell lines from colorectal (Caco-2), prostate (PC-3), and breast (MCF-7) adenocarcinomas.
(§2) The cell lines used in this study (Caco-2, MCF-7, PC-3, and NHDF) were obtained from the American Type Culture Collection (ATCC, Manassas, VA, USA) and cultured in 75 cm^2 culture flasks at 37 °C in a humidified atmosphere with 5% CO2 in a LEEC Culture Safe Precision CO2 Incubator. PC-3 cells were grown in Roswell Park Memorial Institute (RPMI) medium supplemented with 10% of inactivated Fetal Bovine Serum (FBS) and 1% of an antibiotic mixture (Sp; 10,000 U/mL of penicillin G and […] of streptomycin). MCF-7 and Caco-2 cell lines were both cultured using Dulbecco’s Modified Eagle Medium (DMEM). However, the medium for MCF-7 cells was complemented with 10% of inactivated FBS and 1% of antibiotic/antimycotic mixture (Ab; 10,000 U/mL of penicillin G, […] of streptomycin and 25 µg/mL of amphotericin B), and the medium for Caco-2 cells was supplemented with 20% of inactivated FBS and 1% of Sp. Finally, RPMI medium supplemented with 10% FBS, 2 mM of L-glutamine, 10 mM of 4-(2-hydroxyethyl)-1-piperazineethanesulfonic acid (HEPES), 1 mM of sodium pyruvate, and 1% of Ab was used to culture NHDF cells. The culture media were renewed every two to three days until near confluence was achieved. Then, cells were detached using a solution of 0.125 g/L of trypsin and 0.02 g/L of ethylenediaminetetracetic acid (EDTA), counted by the trypan blue method, resuspended, and adequately seeded to continue the culture in 75 cm^2 flasks or for the experiments described below. All manipulations were performed in a Labculture Class II A2 Biological Safety Cabinet.
(§3) After trypsinization, cells were seeded in 96-well culture plates (100 µL; 2 × 10^4 cells/mL), and after 48 h (for adherence), they were incubated with the compounds under study in the absence of light for a duration of 72 h. Then, the medium was removed, and fresh incomplete culture medium (without FBS and Ab or Sp) and MTT solution [5 mg/mL in phosphate buffer saline (PBS)] were added to each well, followed by 4 h of incubation. After this, the medium containing MTT was removed and DMSO was added to dissolve formazan crystals. The absorbance of each well at 570 nm was determined using a microplate spectrophotometer Bio-Rad (Hercules, CA, USA) xMark. Untreated cells were considered the negative control, and 5-FU, a clinically used drug, was considered the positive control. For data analysis, the relative cell proliferation relative to the negative control cells was calculated. For each cell viability study, at least two independent assays in quadruplicate were performed. Increasing concentrations of the compounds between 0.001 and 100 μM were used to determine the IC50 values.

[4] = test system: Caco-2 colorectal adenocarcinoma cells; experiment: MTT cell viability assay, Caco-2; conditions: Homo sapiens, Caco-2, 72 h; for IC50: read-out: IC50 Caco-2; for viability at 10 µM: read-out: cell viability percentage in relation to control, Caco-2
Procedure: as §1, §2, §3

[5] = test system: PC-3 prostate adenocarcinoma cells; experiment: MTT cell viability assay, PC-3; conditions: for viability at 10 µM: read-out: cell viability percentage in relation to control, PC-3; for SI PC-3 (selectivity index versus NHDF): PC-3 versus NHDF
Procedure: as §1, §2, §3

[6] = test system: MCF-7 breast adenocarcinoma cells; experiment: MTT cell viability assay, MCF-7; conditions: for IC50 / viability at 10 µM: Homo sapiens, MCF7, 72 h; for IC50: read-out: IC50 MCF-7, MCF-7, 72 h incubation, MTT; for viability at 10 µM: read-out: cell viability percentage in relation to control, MCF-7; for SI MCF-7 (selectivity index versus NHDF): MCF-7 versus NHDF, 72 h
Procedure: as §1, §2, §3

Caco-2 cells [7] = experiment: Apoptosis (sub-G1 events) by PI staining and flow cytometry; type: cell-based, human; conditions: Caco-2, 600 mM, incubated for 24 h
Procedure: Given that apoptosis is a common programmed mechanism regulating cell death, characterized by DNA fragmentation and an increase in sub-G1 events, we employed the method described by Riccardi and Nicolleti to assess potential apoptosis induction using flow cytometry. Cyanine dyes 5 and 10 were tested at concentrations of 1 µM and 10 µM, respectively. As positive controls for apoptosis, 600 mM sorbitol and 10 µM 5-FU were used, with untreated cells serving as the negative control. […] In contrast, dye 10 induced a slight increase in apoptosis, reaching 1.7%. […] Apoptotic bodies were more evident in cells treated with dye 5 compared to dye 10, which is further supported by the slightly higher apoptosis induction in this assay.
Apoptosis (sub-G1 events) and cell cycle distribution were evaluated by propidium iodide (PI) staining and flow cytometry, as described by Riccardi and Nicolleti. […] Untreated cells were used as the negative control, and sorbitol and 5-FU were used as positive controls. After incubation, the supernatant was collected in a centrifuge tube, cells were washed with PBS, trypsinized and wells were once again washed with PBS. This cell suspension was maintained on ice, centrifugated at 300 g for 5 min, and then the pellet was resuspended in 0.5 mL of PBS. Cells were fixed by adding 4.5 mL of 70% ethanol cooled at −20 °C on ice and were stored at −20 °C for a period ranging from one to a few days. On the day of flow cytometry analysis, PBS was added to the fixed cell tubes, followed by centrifugation and removal of the supernatant. The pellet was resuspended in 0.5 mL of PBS and 0.5 mL of DNA extraction solution (192 mL of 0.2 M sodium phosphate and 8 mL of […], pH 7.8). After incubation for 5 min, the cells were once again centrifuged, the supernatant was removed, and the pellet was resuspended in 0.3 mL of staining solution (20 µg/mL of PI and 0.2 mg/mL of DNase-free RNase in PBS). Using a FACSCalibur flow cytometer (Becton Dickinson, Franklin Lakes, NJ, USA) with a 488 nm laser line, a minimum of 20,000 events were acquired and recorded using the BD CellQuestTM Pro 4.0.2 software, and analyzed with FlowJo 10.5.3 software. To exclude debris and necrotic cells, events with a lower diameter (forward scatter; FCS) and PI fluorescence (FL3) than the hypodiploid apoptotic cells were eliminated (Figures S1 and S2). Two independent experiments were performed. A Student’s t-test was performed to evaluate the statistical significance of the results.

Caco-2 cells [8] = experiment: Caco-2 morphological analysis (optical microscopy); conditions: 24 h
Procedure: Sorbitol and 5-FU were used as positive controls, while untreated cells served as the negative control.
Caco-2 cells near confluency were trypsinized, counted, and then seeded at 3 × 10^4 cells/mL (3 mL) in 35 mm cell culture dishes previously treated for tissue culture. After cell adherence (48 h), they were incubated with solutions under study for 72 h in the absence of light. The cellular morphology was verified every 24 h using a CKX41 SF inverted microscope (Olympus, Tokyo, Japan) with 10, 20, or 40× objectives. A DC6 V digital camera (Olympus, Tokyo, Japan) coupled to the microscope was used to capture cell imaging. The morphology of cells in the presence or absence of treatments was compared.

[9] = normal human dermal fibroblasts (NHDF)
[10] = 72 h incubation, MTT, absence of light
[11] = Caco-2, SI Caco-2 (selectivity index, cancer versus non-cancer cell line NHDF), Caco-2 versus NHDF, 72 h
[12] = Homo sapiens, 72 h, read-out: IC50 PC-3, PC-3, 72 h incubation, MTT

Structure (SMILES) | viability at 72 h, 10 µM [1, 9] [%] | IC50 [2, 10] [nM] | selectivity ratio at 72 h [3, 11] | IC50 [4] [nM] | viability at 10 µM [4] [%] | IC50 [5, 12] [nM] | viability at 10 µM ([5]; Homo sapiens, 72 h) [%] | SI PC-3 (selectivity index versus NHDF) ([5]; 72 h) | IC50 [6] [nM] | viability at 10 µM [6] [%] | SI MCF-7 (selectivity index versus NHDF) [6] | IC50 ([5]; read-out: IC50 PC-3, PC-3, 72 h incubation, MTT) [nM] | viability at 72 h, 10 µM [1] [%] | IC50 ([2]; 72 h) [nM] | selectivity ratio at 72 h ([3]; Caco-2) | apoptosis (sub-G1 events), % of cells (Caco-2 cells [7]) [%] | morphological changes of Caco-2 cells (Caco-2 cells [8]) | melting point [°C]
CCN1C(=Cc2sc3ccc(NC(C)=O)cc3[n+]2CC)Sc2ccccc21.Cc1ccc(S(=O)(=O)[O-])cc1 [Dye 7, 5-Acetamido-3-ethyl-2-((3-ethylbenzo[d]thiazol-2(3H)-ylidene)methyl)benzo[d]thiazol-3-ium 4-methylbenzenesulfonate] | 29 ± 4.76 | 11600 | 80.5 | 140 | 9.89 ± 1.38 | 3560 | 7.97 ± 4 | 3.3 | 380 | 11.8 ± 4.3 | 30.2 |  |  |  |  |  |  | 
CN1C(=Cc2sc3ccccc3[n+]2C)Oc2ccccc21.Cc1ccc(S(=O)(=O)[O-])cc1 [Dye 3, 3-Methyl-2-((3-methylbenzo[d]oxazol-2(3H)-ylidene)methyl)benzo[d]thiazol-3-ium 4-methylbenzenesulfonate] | 23.9 ± 3.05 | 7530 | 81.2 | 90 | 5.81 ± 0.8 | 480 | 1.81 ± 0.31 | 17.2 |  | 3.04 ± 1.08 |  | 430 |  |  |  |  |  | 
CN1C=C/C(=C/c2ccc3ccccc3[n+]2C)c2ccccc21 [Dye 12, 1-Methyl-4-((1-methylquinolin-2(1H)-ylidene)methyl)quinolin-1-ium 4-methylbenzenesulfonate] |  |  |  | 730 | 10.7 ± 0.43 |  | 9.02 ± 3.29 |  |  | 4.81 ± 1.56 |  |  | 5.72 ± 1.91 | 630 | 0.9 |  |  | 
CCN1C(=Cc2sc3cc(N)ccc3[n+]2CC)Sc2ccccc21.[I-] [Dye 11, 6-Amino-3-ethyl-2-((3-ethylbenzo[d]thiazol-2(3H)-ylidene)methyl)benzo[d]thiazol-3-ium iodide] | 16.1 ± 2.46 | 3000 | 17.1 | 170 | 9.6 ± 1.47 | 2100 | 10.5 ± 4.24 | 1.4 | 330 | 7.65 ± 2.8 | 9.0 |  |  |  |  |  |  | 
OC[C@@H](O)[C@@H](O)[C@H](O)[C@@H](O)CO [sorbitol, reference compound] |  |  |  |  |  |  |  |  |  |  |  |  |  |  |  | 37.9 | marked increase in apoptotic bodies | 
CCCCCN1C(=Cc2sc3ccccc3[n+]2C)Sc2ccccc21.[I-] [Dye 1, 3-Methyl-2-((3-pentylbenzo[d]thiazol-2(3H)-ylidene)methyl)benzo[d]thiazol-3-ium iodide] | 0.84 ± 0.26 | 550 | 1.5 | 360 | 1.37 ± 0.08 |  | 0.56 ± 0.12 |  |  | 0.87 ± 1.05 |  |  |  |  |  |  |  | 254 to 258
CN1C(=Cc2n(C)c3ccccc3[n+]2C)Sc2ccccc21.[I-] [Dye 4, 1,3-Dimethyl-2-((3-methylbenzo[d]thiazol-2(3H)-ylidene)methyl)-1H-benzo[d]imidazol-3-ium iodide] | 23.1 ± 1.91 | 7930 | 33.6 | 230 | 7.15 ± 1.08 | 2850 | 4.09 ± 0.61 | 2.8 |  | 21.6 ± 1.33 |  |  |  |  |  |  |  | 270 to 272
CCCCCCCCCCN1C(=Cc2sc3ccccc3[n+]2C)Sc2ccccc21.[I-] [Dye 2, 3-Methyl-2-((3-decylbenzo[d]thiazol-2(3H)-ylidene)methyl)benzo[d]thiazol-3-ium iodide] | 0.13 ± 0.43 | 270 | 1.1 | 240 | 1.09 ± 0.47 |  | 0.62 ± 0.1 |  |  | 0.62 ± 0.79 |  |  |  |  |  |  |  | 217 to 218
CCN1C(=Cc2sc3ccc(N)cc3[n+]2CC)Sc2ccccc21 [Dye 8, 5-Amino-3-ethyl-2-((3-ethylbenzo[d]thiazol-2(3H)-ylidene)methyl)benzo[d]thiazol-3-ium iodide] | 5.52 ± 0.69 | 950 | 1.3 | 740 | 5.21 ± 0.89 |  | 4.12 ± 1.71 |  |  | 6.18 ± 1.48 |  |  |  |  |  |  |  | 
CCN1C(=Cc2n(CC)c3ccc([N+](=O)[O-])cc3[n+]2CC)Sc2ccccc21.[I-] [Dye 9, 1,3-Diethyl-2-((3-ethylbenzo[d]thiazol-2(3H)-ylidene)methyl)-5-nitro-1H-benzo[d]imidazol-3-ium iodide] | 38.2 ± 4.27 | 24500 | 17.5 | 1400 | 16.4 ± 0.81 |  | 39.5 ± 7.97 |  |  | 52.9 ± 8.99 |  |  |  |  |  |  |  | 219 to 220
CN1C(=Cc2sc3ccccc3[n+]2C)C=Cc2ccccc21 [Dye 6, 3-Methyl-2-((1-methylquinolin-2(1H)-ylidene)methyl)benzo[d]thiazol-3-ium 4-methylbenzenesulfonate] | 4.28 ± 1.24 | 790 | 2.9 | 270 | 1.93 ± 0.78 |  | 4.98 ± 1.62 |  |  | 2.49 ± 0.32 |  |  |  |  |  |  |  | 
